Results as given in patent US10828317B2, “Method of treating bacterial infections” (priority 2016, dated 2020).

Test system: S. aureus V86
Test: MIC
Type: cell-based
Settings: Uridine 0 μg/ml

Measured: MIC FdUrd

O=c1[nH]c(=O)n([C@H]2C[C@H](O)[C@@H](CO)O2)cc1F [FdUrd, Fluorodeoxyuridine]
>4 µg/mL: Iclaprim 0.008 μg/ml | Iclaprim 0.03 μg/ml | Iclaprim 0.06 μg/ml | Iclaprim […]
